Laboratory results published in ChEMBL document CHEMBL1212723, “Bioactivity-guided mapping and navigation of chemical space” (Nat Chem Biol, 2009).
Active and inactive are the calls of the source. No cut-off for these calls is given here.

Key:
[1] = molecular target: T1, Polyunsaturated fatty acid 5-lipoxygenase (Homo sapiens, UniProt P09917); assay: Inhibition of LOX5 in human whole blood assessed as inhibition of conversion of arachidonic acid to leukotriene; assay type: tissue-based
T1 sequence (P09917 whole entry): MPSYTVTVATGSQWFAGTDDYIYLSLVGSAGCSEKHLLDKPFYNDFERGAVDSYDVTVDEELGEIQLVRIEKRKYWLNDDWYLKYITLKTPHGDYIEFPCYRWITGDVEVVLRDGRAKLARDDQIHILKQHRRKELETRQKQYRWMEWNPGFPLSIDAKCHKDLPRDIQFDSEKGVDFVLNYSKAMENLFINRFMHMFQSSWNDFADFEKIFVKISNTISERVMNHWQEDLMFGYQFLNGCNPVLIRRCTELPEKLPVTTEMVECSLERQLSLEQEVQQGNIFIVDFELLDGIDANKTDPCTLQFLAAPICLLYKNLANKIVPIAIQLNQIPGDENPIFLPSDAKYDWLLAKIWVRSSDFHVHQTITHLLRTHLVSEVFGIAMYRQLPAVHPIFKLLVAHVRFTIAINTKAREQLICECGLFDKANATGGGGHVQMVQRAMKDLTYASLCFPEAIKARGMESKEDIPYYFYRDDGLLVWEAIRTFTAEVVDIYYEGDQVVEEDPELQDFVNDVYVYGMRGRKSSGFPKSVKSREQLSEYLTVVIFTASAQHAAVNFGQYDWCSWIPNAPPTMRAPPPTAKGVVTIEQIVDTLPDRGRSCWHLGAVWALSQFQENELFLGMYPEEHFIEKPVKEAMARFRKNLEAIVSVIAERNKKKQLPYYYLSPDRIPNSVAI

[2] = molecular target: T2, Estrogen receptor beta (Homo sapiens, UniProt Q92731); assay: Binding affinity to human ERbeta ligand binding domain expressed in Escherichia coli BL21(DE3) cells assessed as recruitment of fluorescently labeled nuclear coactivator Scr1 after 1 hr by fluorescence polarization assay
T2 sequence (Q92731 whole entry, the tested form may be a part): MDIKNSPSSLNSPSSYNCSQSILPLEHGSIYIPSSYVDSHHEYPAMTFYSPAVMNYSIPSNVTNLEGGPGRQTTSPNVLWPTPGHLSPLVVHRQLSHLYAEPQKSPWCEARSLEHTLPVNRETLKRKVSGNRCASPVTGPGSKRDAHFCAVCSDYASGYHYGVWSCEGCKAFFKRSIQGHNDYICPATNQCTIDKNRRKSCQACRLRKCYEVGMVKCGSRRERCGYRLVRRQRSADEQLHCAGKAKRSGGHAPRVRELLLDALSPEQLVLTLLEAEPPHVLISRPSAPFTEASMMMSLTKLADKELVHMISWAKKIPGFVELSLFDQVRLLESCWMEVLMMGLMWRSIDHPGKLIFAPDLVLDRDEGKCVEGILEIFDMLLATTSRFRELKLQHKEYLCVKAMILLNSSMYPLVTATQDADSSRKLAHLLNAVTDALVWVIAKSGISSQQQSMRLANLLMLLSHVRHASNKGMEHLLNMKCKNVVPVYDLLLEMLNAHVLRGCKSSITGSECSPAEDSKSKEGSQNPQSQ

[3] = molecular target: T2, Estrogen receptor beta; assay: Agonist activity at human ERbeta ligand binding domain expressed in Escherichia coli BL21(DE3) cells assessed as induction of coactivator 53-protein binding by fluorescence assay
[4] = molecular target: T3, Estrogen receptor (Homo sapiens, UniProt P03372)
T3 sequence (P03372 whole entry): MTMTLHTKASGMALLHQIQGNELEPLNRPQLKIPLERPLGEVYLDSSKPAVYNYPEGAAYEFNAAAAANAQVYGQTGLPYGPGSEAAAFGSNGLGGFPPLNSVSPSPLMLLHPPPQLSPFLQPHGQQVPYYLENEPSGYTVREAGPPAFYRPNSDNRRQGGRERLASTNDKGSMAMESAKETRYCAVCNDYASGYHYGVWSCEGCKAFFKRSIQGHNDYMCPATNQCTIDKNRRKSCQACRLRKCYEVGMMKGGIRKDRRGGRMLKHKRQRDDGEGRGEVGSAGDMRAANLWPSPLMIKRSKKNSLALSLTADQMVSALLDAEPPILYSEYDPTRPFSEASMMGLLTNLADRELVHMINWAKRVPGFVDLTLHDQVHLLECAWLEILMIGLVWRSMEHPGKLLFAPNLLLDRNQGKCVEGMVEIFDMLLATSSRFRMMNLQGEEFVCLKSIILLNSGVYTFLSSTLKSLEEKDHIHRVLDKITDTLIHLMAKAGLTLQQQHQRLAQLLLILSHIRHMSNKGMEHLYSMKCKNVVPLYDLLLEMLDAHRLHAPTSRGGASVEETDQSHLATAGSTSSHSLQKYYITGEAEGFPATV

[5] = molecular target: T3, Estrogen receptor; assay: biochemical
Description: Binding affinity to human ERalpha ligand binding domain expressed in Escherichia coli BL21(DE3) cells assessed as recruitment of fluorescently labeled nuclear coactivator Scr1 after 1 hr by fluorescence polarization assay

[6] = molecular target: T2, Estrogen receptor beta; assay: Antagonist activity at human ERbeta ligand binding domain expressed in Escherichia coli BL21(DE3) cells assessed as inhibition of coactivator 53-protein binding by fluorescence assay

IC50 [1] [µM]	inhibition [6]	Compound	also measured
3		CN(C)CCNC(=O)c1ccc(COc2ccc3ccccc3c2)cc1	
		O=C(N1CCc2cc(O)ccc2C1)C(F)(F)F	EC50 [2]: 4.6 µM; Activity [3]: Active; Ki [4]: 0.002 µM; EC50 [5]: 0.275 µM
	Active	O=S(=O)(c1ccccc1)N1CCc2cc(O)ccc2[C@H]1c1ccc(OCCN2CCCC2)cc1	
9.5		c1ccc(COc2ccc3ccccc3c2)cc1	
	Active	O=S(=O)(c1ccc2ccccc2c1)N1CCc2cc(O)ccc2[C@H]1c1ccc(OCCN2CCCC2)cc1	
	Active	O=C(N1CCc2cc(O)ccc2[C@H]1c1ccc(OCCN2CCCC2)cc1)C(F)(F)F	
